Measured values: patent US20230099031A1, “BIFUNCTIONAL AGENTS FOR PROTEIN RECRUITMENT AND/OR DEGRADATION” (Orionis Biosciences, Inc., priority 2019, published 2023)
pIC50: −log10 of the molar value. Where a name gives a salt, the structure may show the parent alone.

molecular target: T1, CRBN (Homo sapiens, UniProt Q96SW2); experiment: Competition Assay: MAPPIT-like, competition with trimethoprim-lenalidomide hybrid ligand for binding to CRBN in HEK293T cells; type: cell-based; details: HEK293T cells, 300 nM trimethoprim-lenalidomide hybrid ligand, luciferase 24 hours after compound treatment; read-out: Competition IC50
T1 construct: expressed in transfected cells; host or cells: HEK293T
Source text: A bait protein (protein A) is expressed as a fusion protein in which it is genetically fused to an engineered intracellular receptor domain of the leptin receptor, which is itself fused to the extracellular domain of the erythropoietin (Epo) receptor. Binding of Epo ligand to the EpoR component results in activation of receptor-associated intracellular JAK2. However, activated JAK2 cannot activate the leptin receptor to trigger STAT3 binding and its phosphorylation because its tyrosine residues, normally phosphorylated by activated JAK2, have been mutated. Reconstitution of a JAK2 phosphorylatable STAT3 docking site is instead created through interaction of a protein B with protein A, whereby protein B is fused to a cytoplasmic domain of the gp130 receptor (which now harbors appropriate tyrosine resides recognized by the activated JAK2 kinase). Thus, physical interaction of protein A with protein B reconstitutes and Epo triggers JAK2-STAT3 signaling pathway activation. Activation of STAT3 can be monitored by introduction of a STAT3-responsive reporter gene, including a luciferase-encoding gene or a gene encoding a fluorescent marker such as GFP or some other type of fluorescent protein (EGF etc.). In this manner, the MAPPIT assay provides a versatile assay to assess such recombinant protein-protein interactions, or compound- or hybrid ligand-induced protein-protein interactions, in intact cells.
Formation of the complex results in activation of a STAT-responsive luciferase reporter gene. That signal is set to 100% luciferase activity. In a separate sample set up, cells are prepared in the same manner but, in addition, co-incubated with a test compound whose interaction with CRBN is investigated. […] Increasing concentrations of test compound are assessed to determine CRBN binding efficiency as determined in this type of ligand competition experiment in living cells. Specificity of signal inhibition is assessed by a parallel experimental set up in which test compound effect is assessed for inhibition of signal generated by a control gp130 fusion protein (CTRL) that directly binds to the DHFR-fusion protein in the absence of hybrid ligand (i.e. a direct interaction of the proteins).
In more detail, HEK293T cells are cultured in Dulbecco's modified Eagle's medium supplemented with 10% fetal calf serum, incubated at 37° C., 8% CO2. […] Data points represent the average luciferase activity of triplicate samples derived from cells treated with leptin+test compound for the REM2 control (CTRL) or cells treated with leptin+hybrid ligand+test compound (CRBN) relative to leptin (CTRL) or leptin+hybrid ligand (CRBN) only treated samples (the signals obtained in absence of added test compound for both cases is set at 100% of luciferase activity on y-axis). Error bars represent standard deviations. Curves are fit using 4-parameter nonlinear regression in […] PRISM software

SMILES | pIC50
C#CCOCCOCCOCCNc1nc(Nc2ccc3c(c2)CN(C2CCC(=O)NC2=O)C3=O)c2ccsc2n1 (stereo not drawn) [Compound 5.01] | 6.36
CC(C)(C)OC(=O)NCCOCCOCCOCCn1cc(CNc2nc(Nc3ccc4c(c3)CN(C3CCC(=O)NC3=O)C4=O)c3ccsc3n2)nn1 (stereo not drawn) [Compound 5.02] | 6.42
C#CCOCCOCCOCCNC(=O)COc1ccc2nc(C(=O)Nc3ccc4c(c3)C(=O)N(C3CCC(=O)NC3=O)C4)ccc2c1 (stereo not drawn) [Compound 5.03] | 6.06
C#CCOCCOCCOCCOCC(=O)Nc1cc(Br)c2c(c1OC)C(=O)N(C1CCC(=O)NC1=O)C2 (stereo not drawn) [Compound 5.04] | 6.72
C#CCOCCOCCOCCOCC(=O)Nc1ccc(-c2cccc3c2C(=O)N(C2CCC(=O)NC2=O)C3)cc1 (stereo not drawn) [Compound 5.05] | 6.71
C#CCOCCOCCOCCNC(=O)c1ccc(CNC(=O)CNc2ccc3c(c2)C(=O)N(C2CCC(=O)NC2=O)C3)cc1 (stereo not drawn) [Compound 5.08] | 5.28
CC/C(=C(\c1ccccc1)c1ccc(OCCN(C)CC(=O)NCCNC(=O)COc2cccc3c2CN(C2CCC(=O)NC2=O)C3=O)cc1)c1ccccc1 (stereo not drawn) [Compound 5.56] | 5.24
Cc1sc2c(c1C)C(c1ccc(Cl)cc1)=N[C@@H](CC(=O)NCCOCCOCCOCCOCCNC(=O)COc1cccc3c1CN(C1CCC(=O)NC1=O)C3=O)c1nnc(C)n1-2 (stereo partly drawn) [Compound 5.57] | 6.96
Cc1sc2c(c1C)C(c1ccc(Cl)cc1)=N[C@@H](CC(=O)NCCOCCOCCOCCNC(=O)COc1cccc3c1CN(C1CCC(=O)NC1=O)C3=O)c1nnc(C)n1-2 (stereo partly drawn) [Compound 5.58] | 7.00
Cc1sc2c(c1C)C(c1ccc(Cl)cc1)=N[C@@H](CC(=O)NCCOCCOCCNC(=O)COc1cccc3c1CN(C1CCC(=O)NC1=O)C3=O)c1nnc(C)n1-2 (stereo partly drawn) [Compound 5.59] | 7.17
Cc1sc2c(c1C)C(c1ccc(Cl)cc1)=N[C@@H](CC(=O)NCCNC(=O)COc1cccc3c1CN(C1CCC(=O)NC1=O)C3=O)c1nnc(C)n1-2 (stereo partly drawn) [Compound 5.60] | 6.94

same assay, conditions: protocol and reagents of Example 1; read-out: IC50 Competition

SMILES | pIC50
O=C1N=c2ccc(NC(=O)NCc3ccccc3)cc2=N1 [1-benzyl-3-(2-oxobenzimidazol-5-yl)urea] | 4.62
O=C(O)CNc1cccc2c1CN(C1CCC(=O)NC1=O)C2=O (stereo not drawn) [2-[[2-(2,6-dioxo-3-piperidyl)-1-oxo-isoindolin-4-yl]amino]acetic acid] | 4.86
O=C1CCC(N2C(=O)c3ccccc3C2OCc2ccccc2)C(=O)N1 (stereo not drawn) [3-(1-benzyloxy-3-oxo-isoindolin-2-yl)piperidine-2,6-dione] | 4.23
O=C1CCC(N2Cc3ccc(Nc4ncnc5ccccc45)cc3C2=O)C(=O)N1 (stereo not drawn) [C80382 acetic acid salt, acetic acid;3-[1-oxo-6-(quinazolin-4-ylamino)isoindolin-2-yl]piperidine-2,6-dione] | 7.48
COc1ccc(C2c3ccccc3C(=O)N2C2CCC(=O)NC2=O)cc1 (stereo not drawn) [Compound C11892, 3-[1-(4-methoxyphenyl)-3-oxo-isoindolin-2-yl]piperidine-2,6-dione] | 5.09
O=C1CCC(N2Cc3ccc(NCC(=O)N4CCCCC4)cc3C2=O)C(=O)N1 (stereo not drawn) [Compound C12581] | 5.00
CC1CCN(C(=O)CNc2ccc3c(c2)C(=O)N(C2CCC(=O)NC2=O)C3)CC1 (stereo not drawn) [Compound C12582, 3-[6-[[2-(4-methyl-1-piperidyl)-2-oxo-ethyl]amino]-1-oxo-isoindolin-2-yl]piperidine-2,6-dione] | 1.43
CC1CCCN(C(=O)CNc2ccc3c(c2)C(=O)N(C2CCC(=O)NC2=O)C3)C1 (stereo not drawn) [Compound C12583, 3-[6-[[2-(3-methyl-1-piperidyl)-2-oxo-ethyl]amino]-1-oxo-isoindolin-2-yl]piperidine-2,6-dione] | 7.31
CC1CCCCN1C(=O)CNc1ccc2c(c1)C(=O)N(C1CCC(=O)NC1=O)C2 (stereo not drawn) [Compound C12584, 3-[6-[[2-(2-methyl-1-piperidyl)-2-oxo-ethyl]amino]-1-oxo-isoindolin-2-yl]piperidine-2,6-dione] | 10.10
CC1CN(C(=O)CNc2ccc3c(c2)C(=O)N(C2CCC(=O)NC2=O)C3)CCO1 (stereo not drawn) [Compound C12586, 3-[6-[[2-(2-methylmorpholin-4-yl)-2-oxo-ethyl]amino]-1-oxo-isoindolin-2-yl]piperidine-2,6-dione] | 6.42
O=C1CCC(N2Cc3ccc(NCC(=O)N4CC5CC4CO5)cc3C2=O)C(=O)N1 (stereo not drawn) [Compound C12589] | 4.99
CC1CN(C)CCN1C(=O)CNc1ccc2c(c1)C(=O)N(C1CCC(=O)NC1=O)C2 (stereo not drawn) [Compound C12595, 3-[6-[[2-(2,4-dimethylpiperazin-1-yl)-2-oxo-ethyl]amino]-1-oxo-isoindolin-2-yl]piperidine-2,6-dione] | 6.68
CN1CCN(C(=O)CNc2ccc3c(c2)C(=O)N(C2CCC(=O)NC2=O)C3)CC1=O (stereo not drawn) [Compound C12597, 3-[6-[[2-(4-methyl-3-oxo-piperazin-1-yl)-2-oxo-ethyl]amino]-1-oxo-isoindolin-2-yl]piperidine-2,6-dione] | 5.26
CC1CN(C(=O)CNc2ccc3c(c2)C(=O)N(C2CCC(=O)NC2=O)C3)CC(=O)N1 (stereo not drawn) [Compound C12598, 3-[6-[[2-(3-methyl-5-oxo-piperazin-1-yl)-2-oxo-ethyl]amino]-1-oxo-isoindolin-2-yl]piperidine-2,6-dione] | 5.31
CC1CC(NC(=O)CNc2ccc3c(c2)C(=O)N(C2CCC(=O)NC2=O)C3)CCO1 (stereo not drawn) [Compound C12695, 2-[[2-(2,6-dioxo-3-piperidyl)-3-oxo-isoindolin-5-yl]amino]-N-(2-methyltetrahydropyran-4-yl)acetamide] | 4.24
O=C1Cc2ccccc2C(=O)N1 [Compound C15352, 4H-isoquinoline-1,3-dione] | 4.99
O=C1c2ccccc2CC1n1ccc(=O)[nH]c1=O (stereo not drawn) [Compound C16899, 1-(1-oxoindan-2-yl)pyrimidine-2,4-dione] | 4.98
O=C1CCC(CN2C(=O)c3ccccc3C2=O)C(=O)N1 (stereo not drawn) [Compound C23258, 2-[(2,6-dioxo-3-piperidyl)methyl]isoindoline-1,3-dione] | 1.84
O=C1CCC(N2C(=O)C3CCCCC3C2=O)C(=O)N1 (stereo not drawn) [Compound C24191, 2-(2,6-dioxo-3-piperidyl)-3a,4,5,6,7,7a-hexahydroisoindole-1,3-dione] | 4.75
Cc1cccc2c1C(=O)N(C1CCC(=O)NC1=O)C2 (stereo not drawn) [Compound C28661, 3-(7-methyl-1-oxo-isoindolin-2-yl)piperidine-2,6-dione] | 6.18
COc1cccc2c1C(=O)N(C1CCC(=O)NC1=O)C2 (stereo not drawn) [Compound C29137, 3-(7-methoxy-1-oxo-isoindolin-2-yl)piperidine-2,6-dione] | 6.52
CC(=O)Nc1ccc2c(c1)C(=O)N(C1CCC(=O)NC1=O)C2 (stereo not drawn) [Compound C29408, N-[2-(2,6-dioxo-3-piperidyl)-3-oxo-isoindolin-5-yl]acetamide] | 5.31
CC(=O)Nc1cccc2c1C(=O)N(C1CCC(=O)NC1=O)C2 (stereo not drawn) [Compound C29457, N-[2-(2,6-dioxo-3-piperidyl)-3-oxo-isoindolin-4-yl]acetamide] | 4.98
NC(=O)Nc1cccc2c1CN(C1CCC(=O)NC1=O)C2=O (stereo not drawn) [Compound C29490, [2-(2,6-dioxo-3-piperidyl)-1-oxo-isoindolin-4-yl]urea] | 5.05
O=C1c2c(F)c(F)c(F)c(F)c2C(=O)N1c1ccc(F)cc1F [Compound C34491, 2-(2,4-difluorophenyl)-4,5,6,7-tetrafluoro-isoindoline-1,3-dione] | 4.79
